Results as given in patent publication US6551793B1, “Carotenoid-associated proteins useful for high carotenoid accumulation and production in plants and other organisms” (Yissum Research Development Company of the Hebrew …, priority 1996, dated 2003).

Tests used:
Format in all cases: cell-based, Cucumis sativus
Psy mRNA = assay: In vitro flower bud culture, Northern blot of Psy mRNA in corollas
Description: (§1) Young flower buds were cultured in vitro in the presence (GA) or the absence (C) of 100 μM GA3 for up to 48 hours. Northern and Western blot analyses of corollas, cultured for the indicated periods of time, were performed. The Northern blots (25 μg total RNA/lane) were hybridized with ^32P-labeled DNA inserts from CHRC (CHRC), […] (Psy), and 18s rDNA (18S). Western blot analysis (bottom panel of A) was performed using antibodies against CHRC protein (25 μg total protein/lane). The results of the CHRC Northern blot analyses are also shown graphically relative to the mRNA level of the untreated corollas at zero time (0) (arbitrary value of 1).
(§2) Flower buds were cultured in the presence of 100 μm GA3 (GA), 100 μg/ml paclobutrazol following 2 hours of pretreatment with 100 μg/ml paclobutrazol (P), 100 μg/ml paclobutrazol +100 μm GA3 following 2 hours of pretreatment with 100 μg/ml paclobutrazol (P/GA), 100 μM ABA (ABA), or no phytohormones (C). Total RNA was extracted from corollas after 2 hours of treatment. Northern blot analyses were performed and probed as described in the legend to FIG. 7.
(§3) Total RNA and protein were extracted from cucumber corollas of flower buds cultured for 6 hours in the presence of 100 μM GA3 (GA), 50 μM CHX following 2 hours of pretreatment with 50 μM CHX (CHX/GA), or no phytohormones (C). Northern (CHRC, Psy, and 18S) and Western (bottom panel) blot analyses were performed as described above.
This example describes plant material and conditions for in vitro flower bud culture. C. sativus L. plants (cultivar Shimahon, obtained from Zeraim Gadera, Israel) were grown under standard greenhouse conditions. In vitro culture of flower buds was performed at 23° C., under constant light from cool white fluorescent lamps with a photosynthetic photon flux density of 80 μmol/m^2 g, as described previously. Briefly, buds at developmental stage 1 (˜8 mm in length, 120 hours before anthesis) were collected and rinsed several times with sterile water. Buds were then placed for 24 hours on a perforated Parafilm (American National Can, Greenwich, Conn.) covering a Petri dish filled with double-distilled sterile water, such that only the bases of the buds were in contact with the liquid. […]
This example describes conditions used for RNA isolation and Northern blot analysis. […] Autoradiograms were quantified by scanning suitably exposed films in a densitometer (Molecular Dynamics, Sunnyvale, Calif.). The amount of RNA loaded onto the gels was standardized by optical measurement, by quantitation of the ethidium bromide fluorescence of cytoplasmic rRNA. and by the level of hybridization with a DNA fragment coding for cytoplasmic 18S RNA.

CHRD = assay: In vitro flower bud culture, Western blot of CHRD in corollas
Description: CHRD levels in corollas were analyzed by western blotting (10 μg of total protein per lane) using antibodies against CHRD and horseradish peroxidase anti-rabbit IgG in an enhanced chemiluminescence detection system. FIG. 14B is a Western blot analysis of corollas (50 μg of total protein per lane) cultured for the indicated periods with (+) or without (−) GA3. The blot was decorated with antibodies against CHRD and alkaline phosphatase anti-rabbit 1 gG.
(§4) In FIG. 15A, antibodies against CHRD or CHRC were used in a western blot analysis of CHRD and CHRC levels, respectively, in corollas cultured for 72 hours in the presence (E) or absence (C) of ethylene (50 μg of total protein per lane). In FIG. 15B, flowers were enclosed in aluminum foil in the greenhouse for 3 days and CHRD levels in etiolated (D) and control, nonetiolated (L) corollas were analyzed by western blotting (50 μg of total protein per lane).
(§5) This example describes plant material and conditions for in vitro flower bud culture. C. sativus L. plants (cultivar Shimahon, obtained from Zeraim Gadera, Israel) were grown under standard greenhouse conditions. In vitro culture of flower buds was performed at 23° C., under constant light from cool white fluorescent lamps with a photosynthetic photon flux density of 80 μmol/m^2 g, as described previously. Briefly, buds at developmental stage 1 (˜8 mm in length, 120 hours before anthesis) were collected and rinsed several times with sterile water. Buds were then placed for 24 hours on a perforated Parafilm (American National Can, Greenwich, Conn.) covering a Petri dish filled with double-distilled sterile water, such that only the bases of the buds were in contact with the liquid. Following equilibration, buds were transferred to a fresh Petri dish (zero time for the experiments) and treated with GA3, ABA, paclobutrazol, or CHX, as specified in the figure legends.
CHRD protein was isolated from Cucumis sativus as a minor component, immunologically characterised and analyzed in terms of the regulation of its expression by developmental signals using methods and conditions described above for CHRC. […] Carotenoids are known to accumulate in dark.

CHRC mRNA = assay: In vitro flower bud culture, Northern blot of CHRC mRNA in corollas
Description: as §1, §2, §3
In FIG. 10, flower buds were cultured for 2 hours without (0) or with various concentrations of GA3. Total RNA was isolated from corollas, and a Northern blot was probed as above. The results of the CHRC Northern blot analyses are also shown graphically relative to the mRNA level of control corollas cultured without GA3 (arbitrary value of 1).
as §5
This example describes conditions used for RNA isolation and Northern blot analysis. Total RNA from corollas of cucumber flower buds was isolated as described previously. RNA (15 and 25 μg) was fractionated through a 1.2% formaldehyde gel and transferred to a Hybond-N^− filter (Amersham Corp.). A random priming kit (Boehringer Mannheim) was used to radioactively labeled DNA probes. The blots were hybridized with ^32P-labeled cucumber CHRC cDNA (Vishnevetsky, et al., Plant Journal, 10: 1111-1118 (1996)) and reprobed with melon phytoene synthase (PSY) cDNA (MEL5), provided by D. Grierson of the Nottingham University, UK. The hybridization for analysis of CHRC expression was carried out in 0.263 M Na2HPO4, 7% SDS, […], 1% BSA for 16 hours at 60° C., and the washes were performed in 2×SSC/0.1% SDS at 50° C. followed by 2×SSC/0.1% SDS at 55° C., for 20 minutes each. Hybridization with the MEL5 probe was carried out at 55° C. using the same procedure. Following the hybridization, the blots were washed in 5×SSC/0.1% SDS at 45° C. for 20 minutes followed by 5×SSC/0.1% SDS at 50° C. and 2×SSC/0.1% SDS at 50° C. for 20 minutes each. […]

CHRC protein = assay: In vitro flower bud culture, Western blot of CHRC protein in corollas
Description: as §4, §5

[1] = tested on: GUS reporter gene expression; assay: Transient expression of reporter gene GUS under CHRC promoter versus 35S CaMV promoter
Description: FIGS. 1A and 1B show comparative photographs of cucumber flowers petals showing transient expression of the reporter gene GUS using CHRC promoter (FIG. 1A) or known 35S CaMV promoter (FIG. 1B).
The promoter containing CHRC upstream region was about 70% as efficient as the 35S CaMV promoter in cucumber petals and about 60% as efficient in leaves, fruits and stems. The CHRC promoter's efficiency in another representative of the cucurbit family, namely in melon, was similar to the efficiency found in cucumber.
In cucumber-petals, the CHRC upstream region was about 70% as efficient as the 35S CaMV promoter. In leaves, fruits and stems, the CHRC promoter was about 60% as efficient as 35S CaMV. Promoter's efficiency in melon was similar to that observed in cucumber.

[2] = 50 μM CHX with 100 μM GA3, 6 hours
[3] = dose response 1×10^−8 to 1×10^−4 M GA3, 2 hours
[4] = ethylene, corollas cultured for 72 hours

CC(C)(C)[C@@H](O)[C@@H](Cc1ccc(Cl)cc1)n1cncn1 (racemic) [paclobutrazol]
Effect on Psy mRNA levels (Psy mRNA; 100 μM ABA or 100 μg/ml paclobutrazol, 2 hours of treatment): Neither ABA nor paclobutrazol markedly affected | CHRD level per unit protein, down-regulation compared with control untreated corollas (CHRD; flower buds cultured for 72 hours): 4.8±0.2 times | Decrease in CHRC mRNA levels relative to control untreated corollas (CHRC mRNA; 100 μg/ml paclobutrazol after 2 hours of pretreatment, 2 hours of treatment): 4 fold

C[C@@H]1C[C@@H]([C@H](O)CC2CC(=O)NC(=O)C2)C(=O)[C@@H](C)C1 [CHX, cycloheximide]
Effect on increase in CHRC protein levels in GA3-treated buds (CHRC protein; [2]): successfully abolished | Effect on Psy mRNA levels (Psy mRNA; 50 μM CHX, 6 hours): unaffected | Effect on up-regulation of CHRC mRNA by GA3 (CHRC mRNA; [2]): did not prevent | Effect of CHX alone on CHRC transcript accumulation (CHRC mRNA; CHX alone): did not affect

C=C1C[C@]23C[C@@]1(O)CC[C@H]2[C@@]12C=C[C@H](O)[C@@](C)(C(=O)O1)[C@H]2[C@@H]3C(=O)O [GA3, Gibberellin A3]
CHRC per unit of protein in treated versus control corollas (CHRC protein; 100 μM GA3, after 2 hours of treatment): approximately 2.5 times | Effect on Psy mRNA levels (Psy mRNA; GA3 treatment, first 45 hours of corolla development): not affected | CHRD level in treated versus untreated buds (CHRD; GA3, after only 2 hours): markedly higher | CHRD accumulation with GA3 in the culture medium (CHRD; GA3, in vitro bud culture, 72 hours): enhanced accumulation | CHRC mRNA level in treated versus control corollas (CHRC mRNA; 100 μM GA3, after 20 minutes of treatment): approximately twice as high | CHRC transcript accumulation with exogenous GA3 added to paclobutrazol (CHRC mRNA; 100 μg/ml paclobutrazol + 100 μm GA3 after 2 hours paclobutrazol pretreatment): up-regulated CHRC transcript accumulation to the level of GA3-treated corollas | Concentration at which CHRC was strongly up-regulated (CHRC mRNA; [3]): 10^−5−10^−4 M | Lowest concentration sufficient to markedly elevate basal CHRC mRNA levels (CHRC mRNA; [3]): 10^−7 M | Time to detectable increase in CHRC mRNA level (CHRC mRNA; response to GA3, early time points (data not shown)): 10 to 20 min

C=C [ethylene]
CHRC level in treated corollas versus controls (CHRC protein; [4]): lower than that in controls | CHRD level per unit protein following treatment (CHRD; [4]): down-regulated

B1: CHRC upstream region: sequenced upstream region of the cucumber CHRC gene with strong promoter activity, SEQ ID NO:10 (nucleic acid, listed as Cucumis sativus)
DNA: AAGCTTTACAAATTAGGGTTACTTTATTCATTTTCATCCATTCTCTTTATTGTTAAATTTTGTACATTTATTCAATAATATTATATGTTTATTACAAATTCTCACTTTCTTATTCATACCTATTCACTCAAGCCTTTACCATCTTCCTTTTCTATTTCAATACTATTTCTACTTCATTTTTCACGTTTTTAACATCTTTCTTTATTTCTTGTCCACTTCGTTTAGGGATGCCTAATGTCCCAAATTTCATCTCTCGTAGTAACACAAAACCAATGTAATGCTACTTCTCTCTACATTTTTAATACAAATAAAGTGAAACAAAATATCTATAAATAAACAAATATATATATTTTGTTAGACGCTGTCTCAACCCATCAATTAAAAAATTTTGTTATATTTCTACTTTACCTACTAAATTTGTTTCTCATATTTACCTTTTAACCCCCACAAAAAAAAATTATAAAAAAGAAAGAAAAAAGCTAAACCCTATTTAAATAGCTAACTATAAGATCTTAAAATTATCCTCATCAGTGTATAGTTTAATTGGTTATTAACTTATAACATTATATATCTATGACATATACTCTCTCCTAGCTATTTCTCACATTTTTTAACTTAAGAAAATAGTCATAACATAGTCTAAAATTCAAACATCCACATGCTCTAATTTGATTAACAAAAAGTTAGAAATATTTATTTAAATAAAAAAGACTAATAAATATATAAAATGAATGTTCATACGCAGACCCATTTAGAGATGAGTATGCTTTCACATGCTGAGATTATTTTCAAAACTAAGGTTGTAGCAATATTAAATCAATAAAATTATTATAAATAACAAAATTAACCTGCTCGTGTTTGCTGTATATGGGAGGCTACAAAATAAATTAAACTAAAGATGATTATGTTTTAGACATTTTTTCTATCTGTATTAGTTTATACATATTAATTCAGGAGCTGCACAACCCAATTCTATTTTCGTTCCTTGGTGGCTGGGTTTCTCACAAGGTTCAATAGTCAATATTAGGTTTTATTGGACTTTTAATAGTATCAAACAAATCTATGTGTGAACTTAAAAATTGTATTAAATATTTAGGGTAACCTGTTGCCGTTTTTAGAATAATGTTTCTTCTTAATACACGAAAGCGTATTGTGTATTCATTCATTTGGCGCCTCACATGCTTCGGTTGGCTCGCTTTAGTCTCTGCCTTCTTTGTATATTGTACTCCCCCTCTTCCTATGCCACGTGTTCTGAGCTTAACAAGCCACGTTGCGTGCCATTGCCAAACAAGTCATTTTAACTTCACAAGGTCCGATTTGACCTCCAAAACAACGACAAGTTTCCGAACAGTCGCGAAGATCAAGGGTATAATCGTCTTTTTGAATTCTATTTCTCTTTATTTAATAGTCCCTCTCGTGTGATAGTTTTTAAAAGATTTTTAAAACGTAGCTGCTGTTTAAGTAAATCCCAGTCCTTCAGTTTGT
Efficiency relative to the 35S CaMV promoter ([1]; cucumber leaves, fruits and stems): about 60% | Efficiency relative to the 35S CaMV promoter ([1]; cucumber petals): about 70%
